Measured values published in PMC6081437, “The potency of the broad spectrum bacteriocin, bactofencin A, against staphylococci is highly dependent on primary structure, N-terminal charge and disulphide formation” (Scientific Reports, 2018).
Read-outs that look alike come from different tables or passages of the source. Each block holds one compound with its values, some of them ahead of it. Bridge positions count the residues as written; N and C are the ends. Square brackets hold non-standard residues; d marks the D form. Peptide text beside a SMILES is read from it.

Legend:
[1] = test system: Listeria spp.; details: cell free supernatants of L plantarum ST31 against L. innocua and L. monocytogenes; cited from earlier work
Excerpt: Todorov et al. (1999) previously described plantaricin ST31, a bacteriocin with an amino acid sequence determined to be KRKKHRXQVYNNGMPTGMYR, produced by a sourdough isolate Lactobacillus plantarum ST31, with a reported mass of 2755 + /− 0.3 Da[20]. Substitution of Cys for X results in a peptide with a mass of 2468 Da. However if tryptophan and cysteine, the C terminal amino acids of bactofencin A are included, a mass of 2757 Da is obtained and subsequent oxidation of cysteines gives the published mass, 2755 Da.

[2] = test system: L. monocytogenes ATCC 23074; type: cell-based, Listeria monocytogenes
Procedure: (§1) Peptides were resuspended at 1000 µM in 50 mM sodium phosphate buffer pH 6.8 and checked for purity by MALDI-TOF-MS. Peptides were serially diluted 1 in 4 to give a dilution series of 250, 62.50, 15.63, 3.91, 0.98 and 0.24 µM and assayed by the agar well diffusion assay described by Ryan et al.[19]. Briefly, 50 µl aliquots of each peptide concentration were plated on a S. aureus DPC5246 indicator plate and the plate incubated at 37 °C. Peptide activity (Minimum Inhibitory Concentration (MIC)) was taken as the lowest concentration of peptide to give a zone of inhibition. All assays were performed in triplicate. The dilution series values were rounded to the nearest whole number to give 1000, 250, 63, 16, 4, 1 and 0.25 µM and data is colour coded for ease of interpretation.
(§2) Bactofencin R8Q and bactofencin R8K were synthesised as described above and their activity compared to bactofencin A against S. aureus DPC5246, Listeria innocua DPC3572 and L. monocytogenes ATCC 23074.

[3] = test system: S. aureus DPC5246; type: cell-based, Staphylococcus aureus
In short: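 Agar well diffusion assay: peptides in 50 mM sodium phosphate pH 6.8, 1-in-4 dilutions from 1000 µM stock (250 to 0.24 µM) applied to S. aureus DPC5246 indicator plates at 37 °C. MIC is the lowest concentration giving an inhibition zone, in triplicate; concentrations rounded to whole numbers.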

[4] = test system: Listeria innocua DPC3572; type: cell-based
Procedure: as §1, §2

Compound: KRKKHRXQVYNNGMPTGMYR [plantaricin ST31, bacteriocin produced by sourdough isolate Lactobacillus plantarum ST31 (Todorov et al. 1999); likely natural R8Q variant of bactofencin A]
activity against Listeria spp., in words [1]: inactive

Activity (MIC) ([2]; ATCC 23074): 63 µM
Activity (Minimum Inhibitory Concentration, MIC) ([3]; DPC5246, pH 6.8): 1 µM
Activity (MIC) [4]: 63 µM
Compound: CSCC[C@@H]1NC(=O)CNC(=O)[C@H]([C@@H](C)O)NC(=O)[C@@H]2CCCN2C(=O)[C@H](CCSC)NC(=O)CNC(=O)[C@H](CC(N)=O)NC(=O)[C@H](CC(N)=O)NC(=O)[C@H](Cc2ccc(O)cc2)NC(=O)[C@H](C(C)C)NC(=O)[C@H](CCCNC(=N)N)NC(=O)[C@@H](NC(=O)[C@H](CCCNC(=N)N)NC(=O)[C@H](Cc2c[nH]cn2)NC(=O)[C@H](CCCCN)NC(=O)[C@H](CCCCN)NC(=O)[C@H](CCCNC(=N)N)NC(=O)[C@@H](N)CCCCN)CSSC[C@@H](C(=O)O)NC(=O)[C@H](Cc2c[nH]c3ccccc23)NC(=O)[C@H](CCCNC(=N)N)NC(=O)[C@H](Cc2ccc(O)cc2)NC1=O [bactofencin A] (H-KRKKHRCRVYNNGMPTGMYRWC-OH; disulfide 7-22)

Compound: CSCC[C@@H]1NC(=O)CNC(=O)[C@H]([C@@H](C)O)NC(=O)[C@@H]2CCCN2C(=O)[C@H](CCSC)NC(=O)CNC(=O)[C@H](CC(N)=O)NC(=O)[C@H](CC(N)=O)NC(=O)[C@H](Cc2ccc(O)cc2)NC(=O)[C@H](C(C)C)NC(=O)[C@H](CCC(N)=O)NC(=O)[C@@H](NC(=O)[C@H](CCCNC(=N)N)NC(=O)[C@H](Cc2c[nH]cn2)NC(=O)[C@H](CCCCN)NC(=O)[C@H](CCCCN)NC(=O)[C@H](CCCNC(=N)N)NC(=O)[C@@H](N)CCCCN)CSSC[C@@H](C(=O)O)NC(=O)[C@H](Cc2c[nH]c3ccccc23)NC(=O)[C@H](CCCNC(=N)N)NC(=O)[C@H](Cc2ccc(O)cc2)NC1=O [bactofencin R8Q] (H-KRKKHRCQVYNNGMPTGMYRWC-OH; disulfide 7-22; N-terminus assumed)
Activity (MIC) ([2]; L. monocytogenes ATCC 23074, agar well diffusion): 250 µM
Activity (Minimum Inhibitory Concentration, MIC) ([3]; agar well diffusion, 50 µl aliquots of 1 in 4 serial dilutions from 1000 µM in 50 mM sodium phosphate buffer pH 6.8, 37 °C, lowest concentration giving a zone of inhibition, triplicate, values rounded to whole numbers): 1 µM
Activity (MIC) ([4]; L. innocua DPC3572, agar well diffusion): 250 µM

Activity (Minimum Inhibitory Concentration, MIC) ([3]; DPC5246, pH 6.8): 4 µM
Compound: CSCC[C@@H]1NC(=O)CNC(=O)[C@H]([C@@H](C)O)NC(=O)[C@@H]2CCCN2C(=O)[C@H](CCSC)NC(=O)CNC(=O)[C@@H](CC(N)=O)NC(=O)[C@H](CC(N)=O)NC(=O)[C@H](Cc2ccc(O)cc2)NC(=O)[C@H](C(C)C)NC(=O)[C@H](CCCNC(=N)N)NC(=O)[C@@H](NC(=O)[C@H](CCCNC(=N)N)NC(=O)[C@H](Cc2c[nH]cn2)NC(=O)[C@H](CCCCN)NC(=O)[C@H](CCCCN)NC(=O)[C@H](CCCNC(=N)N)NC(=O)[C@@H](N)CCCCN)CSSC[C@@H](C(=O)O)NC(=O)[C@H](Cc2c[nH]c3ccccc23)NC(=O)[C@H](CCCNC(=N)N)NC(=O)[C@H](Cc2ccc(O)cc2)NC1=O [N12Nd] (H-KRKKHRCRVYN[dN]GMPTGMYRWC-OH; disulfide 7-22; N-terminus assumed)

Activity (Minimum Inhibitory Concentration, MIC) ([3]; DPC5246, pH 6.8): > 1000 µM
Compound: CSCC[C@@H]1NC(=O)CNC(=O)[C@H]([C@@H](C)O)NC(=O)[C@@H]2CCCN2C(=O)[C@H](CCSC)NC(=O)CNC(=O)[C@H](CC(N)=O)NC(=O)[C@@H](CC(N)=O)NC(=O)[C@H](Cc2ccc(O)cc2)NC(=O)[C@H](C(C)C)NC(=O)[C@H](CCCNC(=N)N)NC(=O)[C@@H](NC(=O)[C@H](CCCNC(=N)N)NC(=O)[C@H](Cc2c[nH]cn2)NC(=O)[C@H](CCCCN)NC(=O)[C@H](CCCCN)NC(=O)[C@H](CCCNC(=N)N)NC(=O)[C@@H](N)CCCCN)CSSC[C@@H](C(=O)O)NC(=O)[C@H](Cc2c[nH]c3ccccc23)NC(=O)[C@H](CCCNC(=N)N)NC(=O)[C@H](Cc2ccc(O)cc2)NC1=O [N11Nd] (H-KRKKHRCRVY[dN]NGMPTGMYRWC-OH; disulfide 7-22; N-terminus assumed)
